Data: US20260183407A1, “DYRK/CLK PROTACS AND USES THEREOF” (Arizona Board of Regents on Behalf of the University of …, priority 2022, published 2026)

Key:
DYRK1A [1] = biological target: T1, DYRK1A (Homo sapiens, UniProt Q13627); test: KdELECT kinase binding assay (Eurofins), DYRK1A; settings: 11-point 3-fold dilution series, qPCR readout; read-out: Binding Affinity (Kd) DYRK1A
T1 construct: purchased Eurofins; host or cells: E. coli BL21-derived (T7 phage display) or HEK-293
Method: (§1) KDs were obtained from Eurofins who used the following procedure: Kinase tagged T7 phase strains were prepared in an E. coli host derived from the BL21 strain. E. coli were grown to log-phase and infected with T7 phage and incubated with shaking at 32° C. until lysis. The lysates were centrifuged and filtered to remove cell debris. The remaining kinases were produced in HEK-293 cells and subsequently tagged with DNA for qPCR detection. Streptavidin-coated magnetic beads were treated with biotinylated small molecule ligands for 30 minutes at room temperature to generate affinity resins for kinase assays. The liganded beads were blocked with excess biotin and washed with locking buffer (SeaBlock (Pierce), 1% BSA, 0.05% Tween 20, 1 mM DTT) to remove unbound ligand and to reduce non-specific binding. Binding reactions were assembled by combining kinases, liganded affinity beads, and test compounds in 1× binding buffer (20% SeaBlock, 0.17× PBS, 0.05% Tween 20, 6 mM DTT). Test compounds were prepared as 111X stocks in 100% DMSO. Kds were determined using a 11-poin 3-fold compound dilution series with three DMSO control points. All compounds for Kd measurements are distributed by acoustic transfer (non-contact dispensing) in 100% DMSO. The compounds were then diluted directly into the assays such that the final concentration of DMSO was 0.9%. All reactions performed in polypropylene 384-well plate. Each was a final volume of 0.02 mL. The assay plates were incubated at room temperature with shaking for 1 hour and the affinity beads were washed with wash buffer (1×PBS, 0.05% Tween 20). The beads were then resuspended in elution buffer (1X PBS, 0.05% Tween 20, 0.5 µM nonbiotinylated affinity ligand) and incubated at room temperature with shaking for 30 minutes. The kinase concentration in the eluates was measured by qPCR.

DYRK1B [2] = biological target: T2, DYRK1B (Homo sapiens, UniProt Q9Y463); test: HiBiT split luciferase assay of targeted degradation of DYRK1B in Flp-In T-REx 293 cells; type: cell-based; settings: 300 nM compound, 24 h, HiBiT-tagged DYRK1B in Flp-In T-REx 293 cells, normalized to vehicle; read-out: Relative Degradation at 300 nM DYRK1B
T2 construct: purchased Eurofins; host or cells: E. coli BL21-derived (T7 phage display) or HEK-293
Source text: (§2) The Flp-In T-REx 293 Cell Line and the pcDNA5/FRT/TO vector (Invitrogen) were used to generate stable cell clones for tetracyclin-inducible expression of DYRK1A and DYRK1B. These cells contain a single stably integrated Flp recognition target (FRT) site, which allows for site-specific integration of the expression cassette by the Flp (Flippase) recombinase. DYRK1 constructs were designed to contain a C-terminal HiBiT tag for quantitative detection of HiBiT-tagged proteins in cellular lysates with the help a split luciferase assay (Nano-Glo HiBiT Lytic Detection System, Promega). To monitor the targeted degradation of DYRK1A or DYRK1B, cells were seeded in 96-well plates (10,000 cells/per well) and treated with doxycyclineinal concentration 2 μg/ml) to induce DYRK1 expression. Compounds with presumed PROTAC activity were administered 24 h after seeding. After further incubation for 24 h, cells were grossly and microscopically inspected for overt toxicity. Cells were lysed in 100 μL ice-cold passive lysis buffer (PLB, Promega) by orbital shaking (30 min on ice) before lysates were centrifuged in PCR tube (20 min 20,000 g, RT). A 10 μl aliquot of the supernatant was subjected to the HiBiT lytic assay. Luminescence was quantified in an Orion Microplate luminometer (Berthold Detection System, Germany). All compounds were tested in duplicate or triplicate wells (technical replicates) and at least two independent experiments. Relative degradation was calculated by normalization to vehicle-treated control samples.

DYRK1A [3] = biological target: T1, DYRK1A; test: HiBiT split luciferase assay of targeted degradation of DYRK1A in Flp-In T-REx 293 cells; type: cell-based; settings: 300 nM compound, 24 h, HiBiT-tagged DYRK1A in Flp-In T-REx 293 cells, normalized to vehicle; read-out: Relative Degradation at 300 nM DYRK1A
Source text: as §2

DYRK1B [4] = biological target: T2, DYRK1B; test: KdELECT kinase binding assay (Eurofins), DYRK1B; settings: 11-point 3-fold dilution series, qPCR readout; read-out: Binding Affinity (Kd) DYRK1B
Method: as §1

T2 sequence (Q9Y463 whole entry, species assumed): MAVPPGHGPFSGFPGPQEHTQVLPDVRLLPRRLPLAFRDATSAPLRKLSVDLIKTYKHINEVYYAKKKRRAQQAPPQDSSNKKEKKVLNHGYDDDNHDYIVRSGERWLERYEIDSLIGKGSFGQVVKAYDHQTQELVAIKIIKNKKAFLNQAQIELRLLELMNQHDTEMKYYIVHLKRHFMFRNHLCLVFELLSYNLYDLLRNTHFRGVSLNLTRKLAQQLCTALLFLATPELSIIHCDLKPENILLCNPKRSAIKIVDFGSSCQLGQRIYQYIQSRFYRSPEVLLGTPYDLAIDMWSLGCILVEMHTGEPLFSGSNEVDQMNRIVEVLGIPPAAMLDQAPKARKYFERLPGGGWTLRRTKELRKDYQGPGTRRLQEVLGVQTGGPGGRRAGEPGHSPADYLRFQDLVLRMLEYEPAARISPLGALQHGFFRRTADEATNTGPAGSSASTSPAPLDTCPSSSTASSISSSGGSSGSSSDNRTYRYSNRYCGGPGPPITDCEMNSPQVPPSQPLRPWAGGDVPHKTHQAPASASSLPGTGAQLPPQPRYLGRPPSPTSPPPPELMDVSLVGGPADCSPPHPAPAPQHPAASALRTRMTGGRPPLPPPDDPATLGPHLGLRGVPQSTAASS

Row | SMILES | Kd (DYRK1A [1]) [µM] | inhibition at 0.3 µM (DYRK1B [2]) [%] | inhibition at 0.3 µM (DYRK1A [3]) [%] | Kd (DYRK1B [4]) [µM]
1 | Cc1nc2ccc(-c3ccnc(N)c3)nc2n1-c1ccc(N2CCN(CC#Cc3ccc(N4CCC(C(=O)N5CCC(n6cc(CNc7cccc8c7C(=O)N(C7CCC(=O)NC7=O)C8=O)cn6)CC5)CC4)nc3)CC2)c(C(F)(F)F)c1 (stereo not shown) [Compound 24, 4-(((1-(1-(1-(5-(3-(4-(4-(5-(2-aminopyridin-4-yl)-2-methyl-3H-imidazo[4,5-b]pyridin-3-yl)-2-(trifluoromethyl)phenyl)piperazin-1-yl)prop-1-yn-1-yl)pyridin-2-yl)piperidine-4-carbonyl)piperidin-4-yl)-1H-pyrazol-4-yl)methyl)amino)-2-(2,6-dioxopiperidin-3-yl)isoindoline-1,3-dione] | 0.01 to 0.1 | < 30 | > 60 | 0.01 to 0.1
2 | Cc1nc2ccc(-c3ccnc(N)c3)nc2n1-c1ccc(N2CCN(CCOCCOCCC(=O)N3CCN(Cc4ccc(CNc5cccc6c5CN(C5CCC(=O)NC5=O)C6=O)cc4)CC3)CC2)c(F)c1 (stereo not shown) [Compound 10, 3-(4-((4-((4-(3-(2-(2-(4-(4-(5-(2-aminopyridin-4-yl)-2-methyl-3H-imidazo[4,5-b]pyridin-3-yl)-2-fluorophenyl)piperazin-1-yl)ethoxy)ethoxy)propanoyl)piperazin-1-yl)methyl)benzyl)amino)-1-oxoisoindolin-2-yl)piperidine-2,6-dione] | < 0.01 | < 30 | 30 to 60 | 0.01 to 0.1
3 | Cc1ncsc1-c1ccc(CNC(=O)[C@@H]2C[C@@H](O)CN2C(=O)[C@@H](NC(=O)CCOCCOCCOCCOCCOCCN2CCN(c3ccc(-n4c(C)nc5ccc(-c6ccnc(N)c6)nc54)cc3F)CC2)C(C)(C)C)cc1 [Compound 4, (2S,4R)-1-((S)-1-(4-(4-(5-(2-aminopyridin-4-yl)-2-methyl-3H-imidazo[4,5-b]pyridin-3-yl)-2-fluorophenyl)piperazin-1-yl)-20-(tert-butyl)-18-oxo-3,6,9,12,15-pentaoxa-19-azahenicosan-21-oyl)-4-hydroxy-N-(4-(4-methylthiazol-5-yl)benzyl)pyrrolidine-2-carboxamide] | < 0.01 | < 30 | < 30 | < 0.01
4 | Cc1nc2ccc(-c3ccnc(N)c3)nc2n1-c1ccc(N2C[C@@H]3C[C@H]2CN3CC#Cc2ccc(N3CCC(C(=O)N4CCC(n5cc(CNc6cccc7c6C(=O)N(C6CCC(=O)NC6=O)C7=O)cn5)CC4)CC3)nc2)c(F)c1 (stereo partly drawn) [Compound 20, 4-(((1-(1-(1-(5-(3-((1S,4S)-5-(4-(5-(2-aminopyridin-4-yl)-2-methyl-3H-imidazo[4,5-b]pyridin-3-yl)-2-fluorophenyl)-2,5-diazabicyclo[2.2.1]heptan-2-yl)prop-1-yn-1-yl)pyridin-2-yl)piperidine-4-carbonyl)piperidin-4-yl)-1H-pyrazol-4-yl)methyl)amino)-2-(2,6-dioxopiperidin-3-yl)isoindoline-1,3-dione] | < 0.01 | < 30 | 30 to 60 | 0.01 to 0.1
5 | Cc1nc2ccc(-c3ccnc(N)c3)nc2n1-c1ccc(N2CCN(CC#Cc3ccc(N4CCC(C(=O)N5CCC(n6cc(CNc7cccc8c7C(=O)N(C7CCC(=O)NC7=O)C8=O)cn6)CC5)CC4)nc3)CC2)c(F)c1 (stereo not shown) [Compound 18, 4-(((1-(1-(1-(5-(3-(4-(4-(5-(2-aminopyridin-4-yl)-2-methyl-3H-imidazo[4,5-b]pyridin-3-yl)-2-fluorophenyl)piperazin-1-yl)prop-1-yn-1-yl)pyridin-2-yl)piperidine-4-carbonyl)piperidin-4-yl)-1H-pyrazol-4-yl)methyl)amino)-2-(2,6-dioxopiperidin-3-yl)isoindoline-1,3-dione] | < 0.01 | > 50 | > 60 | 0.01 to 0.1
6 | Cc1nc2ccc(-c3ccnc(N)c3)nc2n1-c1ccc(CN2CCN(CC#Cc3ccc(N4CCC(C(=O)N5CCC(n6cc(CNc7cccc8c7C(=O)N(C7CCC(=O)NC7=O)C8=O)cn6)CC5)CC4)nc3)CC2)cc1 (stereo not shown) [Compound 25, 4-(((1-(1-(1-(5-(3-(4-(4-(5-(2-aminopyridin-4-yl)-2-methyl-3H-imidazo[4,5-b]pyridin-3-yl)benzyl)piperazin-1-yl)prop-1-yn-1-yl)pyridin-2-yl)piperidine-4-carbonyl)piperidin-4-yl)-1H-pyrazol-4-yl)methyl)amino)-2-(2,6-dioxopiperidin-3-yl)isoindoline-1,3-dione] | < 0.01 | 30 to 50 | > 60 | < 0.01
7 | Cc1nc2ccc(-c3ccnc(N)c3)nc2n1-c1ccc(N2CCN(CC#Cc3cncc(N4CCC(C(=O)N5CCC(n6cc(CNc7cccc8c7C(=O)N(C7CCC(=O)NC7=O)C8=O)cn6)CC5)CC4)n3)CC2)c(F)c1 (stereo not shown) [Compound 32, 4-(((1-(1-(1-(6-(3-(4-(4-(5-(2-aminopyridin-4-yl)-2-methyl-3H-imidazo[4,5-b]pyridin-3-yl)-2-fluorophenyl)piperazin-1-yl)prop-1-yn-1-yl)pyrazin-2-yl)piperidine-4-carbonyl)piperidin-4-yl)-1H-pyrazol-4-yl)methyl)amino)-2-(2,6-dioxopiperidin-3-yl)isoindoline-1,3-dione] | 0.01 to 0.1 | > 50 | > 60 | 0.01 to 0.1
8 | Cc1nc2ccc(-c3ccnc(N)c3)nc2n1-c1ccc(N2C3CCC2CN(CC#Cc2ccc(N4CCC(C(=O)N5CCC(n6cc(CNc7cccc8c7C(=O)N(C7CCC(=O)NC7=O)C8=O)cn6)CC5)CC4)nc2)C3)c(F)c1 (stereo not shown) [Compound 21, 4-(((1-(1-(1-(5-(3-(8-(4-(5-(2-aminopyridin-4-yl)-2-methyl-3H-imidazo[4,5-b]pyridin-3-yl)-2-fluorophenyl)-3,8-diazabicyclo[3.2.1]octan-3-yl)prop-1-yn-1-yl)pyridin-2-yl)piperidine-4-carbonyl)piperidin-4-yl)-1H-pyrazol-4-yl)methyl)amino)-2-(2,6-dioxopiperidin-3-yl)isoindoline-1,3-dione] | 0.01 to 0.1 | < 30 | 30 to 60 | 0.1 to 1
9 | Cc1nc2ccc(-c3ccnc(N)c3)nc2n1-c1ccc(N2CCN(CCOCCOCCNc3cccc4c3C(=O)N(C3CCC(=O)NC3=O)C4=O)CC2)c(F)c1 (stereo not shown) [Compound 5, 4-((2-(2-(2-(4-(4-(5-(2-aminopyridin-4-yl)-2-methyl-3H-imidazo[4,5-b]pyridin-3-yl)-2-fluorophenyl)piperazin-1-yl)ethoxy)ethoxy)ethyl)amino)-2-(2,6-dioxopiperidin-3-yl)isoindoline-1,3-dione] | < 0.01 | < 30 | 30 to 60 | < 0.01
10 | Cc1nc2ccc(-c3ccnc(N)c3)nc2n1-c1ccc(N2CCN(CCC#Cc3ccc(N4CCC(C(=O)N5CCC(n6cc(CNc7cccc8c7C(=O)N(C7CCC(=O)NC7=O)C8=O)cn6)CC5)CC4)nc3)CC2)c(F)c1 (stereo not shown) [Compound 19, 4-(((1-(1-(1-(5-(4-(4-(4-(5-(2-aminopyridin-4-yl)-2-methyl-3H-imidazo[4,5-b]pyridin-3-yl)-2-fluorophenyl)piperazin-1-yl)but-1-yn-1-yl)pyridin-2-yl)piperidine-4-carbonyl)piperidin-4-yl)-1H-pyrazol-4-yl)methyl)amino)-2-(2,6-dioxopiperidin-3-yl)isoindoline-1,3-dione] | 0.01 to 0.1 | > 50 | > 60 | 0.01 to 0.1
